The structures appear in SMILES notation.

Three compounds from patent US20250346573A1, “AZAQUINOLINONE DERIVATIVE, PREPARATION METHOD THEREFOR AND USE THEREOF” (CHENGDU EASTON BIOPHARMACEUTICALS CO., LTD., priority 2022, published 2025) can be followed below.

Data set [1] concerns BRCA1-mutated MDA-MB-436 cells. The data set can be described thus: Proliferation inhibitory test of BRCA1-mutated MDA-MB-436 cells (CCK-8). It counts as cell-based. The conditions noted are these: Homo sapiens, 120 h, 5 days, read-out: IC50 (nM), inhibitory activity against BRCA1-mutated MDA-MB-436 cells. As to the method:
CCK-8 was used to measure the content of mitochondrial dehydrogenase in cells at different drug concentrations, and the luminescence intensity was used to reflect the cell activity. The IC50 values of different compounds on BRCA1-mutated MDA-MB-436 cells were calculated using the survival rate, and the proliferation inhibitory effect of the compounds of the present disclosure on BRCA1-mutated MDA-MB-436 cells was studied to evaluate the anti-tumor efficacy of the test compounds at the cellular level.
(§1) On Day −1, the cells were inoculated into the 96-well cell culture plate at a fixed cell density and then placed in the 5% CO2 cell incubator for culture overnight at 37° C.
(§2) On Day 0, the compound to be tested was prepared into a 10 mM stock solution and diluted into 9 concentration points at the concentration of 1,000 nM, 300 nM, 100 nM, 30 nM, 10 nM, 3 nM, 1 nM, 0.3 nM and 0.1 nM in two duplicated wells. A fixed volume of the diluted compound was added to the 96-well cell culture plate and then placed in the 5% CO2 cell incubator for culture at 37° C. for 5 days.
(§3) On Day 5, a fixed volume of CCK-8 was added to the 96-well cell culture plate and incubated in the 5% CO2 cell incubator at 37° C. for 1.5 h, and the plate was read by a chemiluminescence module of the multifunctional microplate reader.
With the logarithmic value of the concentration as an X axis and the survival percentage as a Y axis, a dose-effect curve was fitted by using a log(inhibitor) vs. response-Variable slop (Four parameters) formula of the analysis software Graphpad Prism 9, thereby obtaining the IC50 value of the anti-proliferation inhibitory activity of each compound against BRCA1-mutated MDA-MB-436 cells.

A short description of data set [2]: Study on pharmacokinetics of rats (oral gavage, plasma LC-MS/MS). The conditions noted are these: female SD rats; for AUC(0-t) / Cmax / half-life: rat. It counts as in vivo. As to the method: With SD rats as test animals, the plasma concentration in the plasma of rats at different time points after oral administration of the compounds of the present application was determined by an LC-MS/MS method. Pharmacokinetic parameters of the compounds of the present application in rats were obtained to study pharmacokinetic characteristics.
SD rats, female, body weight 180-220 g, 3 rats per group. After being purchased, the animals were fed in an animal house for an adaptation period of at least 3 days and then used for testing after passing quarantine.
3.1. Grouping: The SD rats were randomly grouped according to Table 4, which had no statistical difference in the body weight between groups after grouping.
3.2. Vehicle: 10% DMSO and 90% (20% SBE-β-CD in saline).
According to Table 4, each compound was prepared into a clear solution with the vehicle, respectively, and each group was administered by gavage with the corresponding test drug. Before administration, and at 15 min, 30 min, 1 h, 2 h, 4 h, 6 h, 8 h and 24 h after the administration, a fixed volume of blood was collected through sinuses jugularis, placed in an EDTA-K2 anticoagulant tube, and centrifuged at 4,000 rpm for 10 min to separate the plasma in a centrifuge tube. The plasma was frozen in a refrigerator at −80° C.
The plasma stored at −80° C. at each time point was taken out, and a fixed volume of acetonitrile was added thereto. After being vortexed at 1,500 rpm for 2 min, it was centrifuged for 15 min (3,500 r/min). A fixed volume of solution supernatant was taken for LC-MS/MS analysis.
The pharmacokinetic behaviors of the test compounds were fitted with a non-compartmental model, and the main pharmacokinetic parameters were calculated using DAS3.31 software.

The test system of data set [3] is BRCA1-mutated HCC1395 cells. Kind of data set: Proliferation inhibitory test of BRCA1-mutated HCC1395 cells (CCK-8). It counts as cell-based. The conditions noted are these: Homo sapiens, 120 h, 5 days, read-out: IC50 (nM), inhibitory activity against BRCA1-mutated HCC1395 cells. As to the method: CCK-8 was used to measure the content of mitochondrial dehydrogenase in cells at different drug concentrations, and the luminescence intensity was used to reflect the cell activity. The IC50 values of different compounds on BRCA1-mutated HCC1395 cells were calculated using the survival rate, and the proliferation inhibitory effect of the compounds of the present disclosure on BRCA1-mutated HCC1395 cells was studied to evaluate the anti-tumor efficacy of the test compounds at the cellular level.
as §1, §2, §3
With the logarithmic value of the concentration as an X axis and the survival percentage as a Y axis, a dose-effect curve was fitted by using a log(inhibitor) vs. response-Variable slop (Four parameters) formula of the analysis software Graphpad Prism 9, thereby obtaining the IC50 value of the anti-proliferation inhibitory activity of each compound against BRCA1-mutated HCC1395 cells.

In the case of `CNC(=O)c1ccc(N2CCN(Cc3cc4[nH]c(=O)c(C)nc4c(F)c3F)CC2)c(C)n1` [Compound 9, 5-(4-((7,8-difluoro-2-methyl-3-oxo-3,4-dihydroquinoxalin-6-yl)methyl)piperazin-1-yl)-N,6-dimethylpicolinamide], the IC50 (in general, the point on the concentration scale where inhibition reaches its midpoint) in data set [1] amounted to 5.84 nM. In data set [2] (po. 10 mg/kg), the Cl_F_obs was determined as 0.5 mL/min/kg; the AUC(0-t) (in general, the area under the concentration-time curve up to a stated or last time point) was 340000 ng·h/mL; the concentration peaked (Cmax) at 31900 ng/mL; the half-life (as a rule, the time needed for the level to fall by half in the phase considered) is 7.74 h. Further, the IC50 in data set [3] came out at 2.29 nM.

For `CCc1nc2c(F)cc(CN3CCN(c4ccc(C(=O)NC)nc4C)CC3)cc2[nH]c1=O` [Compound 32, 5-(4-((2-ethyl-8-fluoro-3-oxo-3,4-dihydroquinoxalin-6-yl)methyl)piperazin-1-yl)-N,6-dimethylpicolinamide], the IC50 in data set [1] is 5.24 nM. Further, in data set [2] (po. 3 mg/kg), the Cl_F_obs turned out to be 0.83 mL/min/kg, the AUC(0-t) is 50600 ng·h/mL, the peak level (Cmax) was 7180 ng/mL and the half-life was 7.39 h. The IC50 in data set [3] amounted to 1.82 nM.

Turning to `Cc1nc(C(=O)NC2CC2)ccc1N1CCN(Cc2cc(F)c3nc(C)c(=O)[nH]c3c2)CC1` [Compound 55, N-cyclopropyl-5-(4-((8-fluoro-2-methyl-3-oxo-3,4-dihydroquinoxalin-6-yl)methyl)piperazin-1-yl)-6-methylpicolinamide], in data set [1], the IC50 turned out to be 2.2 nM. Besides, in data set [2] (po. 3 mg/kg), the Cl_F_obs is 2.33 mL/min/kg; the AUC(0-t) was 21300 ng·h/mL; the Cmax (in general, the peak of the concentration-time curve) worked out at 2210 ng/mL; the half-life is 6.26 h. In addition, the 50% inhibitory concentration (IC50) in data set [3] was determined as 2.56 nM.
